In assay [1] the target is Ephrin type-A receptor 4 (Mus musculus, UniProt Q03137). The assay is described as follows: inhibitors of EphA4 binding to KYL peptide, primary screen, biochemical, colorimetric, mouse EphA4 (AID 689). The assay is classed as functional.
A short description of assay [2]: cytotoxicity toward NIH3T3 fibroblasts, dose response, counter-screen, cell-based, ATP luminescence, mouse fibroblasts (AID 2010).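 Further: cells exposed to compound for about 90 hours before reading.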 It counts as functional. Background: The purpose of a counterscreen is to sort out artefacts and off-target activity.
A short description of assay [3]: inhibitors of intracellular T. cruzi replication, confirmation, NIH3T3 host cells, beta-gal luminescence (AID 2044).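 Further: intracellular parasites grown in NIH/3T3 mouse fibroblasts as host cells; luminescent beta-galactosidase reporter signal from transgenic T. cruzi replicating inside host cells; inhibitors lower the luminescence signal.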 It counts as functional, cell-based.
For assay [4], the target named is T1, Tyrosine-protein phosphatase non-receptor type 7 (Homo sapiens, UniProt P35236).
T1 sequence (P35236 whole entry): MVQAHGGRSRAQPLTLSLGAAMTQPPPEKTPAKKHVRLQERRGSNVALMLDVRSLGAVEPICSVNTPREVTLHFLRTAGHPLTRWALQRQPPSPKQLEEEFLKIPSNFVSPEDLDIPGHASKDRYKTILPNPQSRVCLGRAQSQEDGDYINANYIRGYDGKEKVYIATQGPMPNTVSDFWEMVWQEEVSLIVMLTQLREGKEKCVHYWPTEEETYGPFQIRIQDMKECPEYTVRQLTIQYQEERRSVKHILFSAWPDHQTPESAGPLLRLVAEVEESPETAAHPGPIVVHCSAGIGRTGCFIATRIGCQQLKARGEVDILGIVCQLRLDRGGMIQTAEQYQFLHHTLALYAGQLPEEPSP
Nature of the assay: inhibitors of human HePTP phosphatase, […], biochemical, absorbance, leukemia target (AID 521). It counts as functional.

A short description of assay [5]: M. tuberculosis growth inhibition, HTS (AID 449762). The assay is classed as functional.
The target of assay [6] is E3 ubiquitin-protein ligase Mdm2 (Homo sapiens, UniProt Q00987). The assay is described as follows: enhancers of MDM2-luciferase reporter signal, concentration-effect titration, project on inhibitors of MDM2 ubiquitin ligase, cellular assay, luminescent readout, 384-well plate format (AID 1394).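 Further: MDM2 E3 inhibitors raise luminescence so EC50 is for signal enhancement.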 It counts as functional. For orientation: In a reporter assay the amount or activity of a reporter protein is the signal.
E3 ubiquitin-protein ligase Mdm2, sequence (Q00987 whole entry): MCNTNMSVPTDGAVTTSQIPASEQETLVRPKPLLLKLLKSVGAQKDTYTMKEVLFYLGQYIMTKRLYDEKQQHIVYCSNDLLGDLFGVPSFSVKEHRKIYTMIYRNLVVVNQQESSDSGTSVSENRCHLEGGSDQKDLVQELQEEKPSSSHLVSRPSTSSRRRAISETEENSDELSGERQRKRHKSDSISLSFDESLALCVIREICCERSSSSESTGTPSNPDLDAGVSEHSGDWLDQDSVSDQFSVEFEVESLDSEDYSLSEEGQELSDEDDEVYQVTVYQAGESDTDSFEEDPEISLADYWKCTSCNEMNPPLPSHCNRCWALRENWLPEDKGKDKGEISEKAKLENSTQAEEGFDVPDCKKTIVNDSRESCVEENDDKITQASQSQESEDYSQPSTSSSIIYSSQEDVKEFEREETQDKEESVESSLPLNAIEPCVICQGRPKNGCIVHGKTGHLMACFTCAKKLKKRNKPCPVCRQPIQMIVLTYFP

Assay [7] addresses Ion channel NompC (Danio rerio, UniProt Q7T1G6). The assay is described as follows: Fluorescence counterscreen assay for TRPML3 agonists: dose response cell-based high-throughput screening assay to identify agonists of the transient receptor potential channel N1 (TRPN1). [Related pubchem assays: 1526, 1424, 1448 ]. It counts as functional.
The target in assay [8] is Mucolipin-3 (Homo sapiens, UniProt Q8TDD5). Nature of the assay: Dose response cell-based high-throughput screening assay for agonists of the transient receptor potential channel ML3 (TRPML3). [Related pubchem assays: 1526, 1424, 1448 ]. It counts as functional.
Mucolipin-3, sequence (Q8TDD5 whole entry): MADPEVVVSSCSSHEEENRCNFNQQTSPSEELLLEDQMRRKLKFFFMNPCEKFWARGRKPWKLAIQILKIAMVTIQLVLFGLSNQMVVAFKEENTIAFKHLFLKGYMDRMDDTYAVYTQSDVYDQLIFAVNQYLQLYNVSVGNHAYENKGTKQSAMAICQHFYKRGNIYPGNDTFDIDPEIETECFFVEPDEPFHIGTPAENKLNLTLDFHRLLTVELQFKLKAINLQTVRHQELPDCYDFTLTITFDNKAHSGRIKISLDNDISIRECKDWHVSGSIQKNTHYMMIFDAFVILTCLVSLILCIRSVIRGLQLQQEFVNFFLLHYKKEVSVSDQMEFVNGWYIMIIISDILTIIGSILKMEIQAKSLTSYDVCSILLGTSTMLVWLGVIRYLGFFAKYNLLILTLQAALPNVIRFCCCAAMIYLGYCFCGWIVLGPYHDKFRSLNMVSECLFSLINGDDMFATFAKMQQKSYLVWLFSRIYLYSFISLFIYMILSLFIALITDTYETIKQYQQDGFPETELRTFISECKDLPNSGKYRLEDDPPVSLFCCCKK
The nature of assay [9]: Jurkat T cell cytotoxicity, dose response, cytotoxicity control for P. falciparum gametocyte viability project, luminescence (AID 1117277).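 Further: potency reflects loss of cellular ATP meaning fewer viable cells.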 The assay is classed as functional, cell-based.
Assay [10] is described as follows: P. falciparum late gametocyte killing, dose response, luminescence (AID 1117278).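 Further: gametocytes exposed to compound for 24 hours.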 The assay is classed as functional, cell-based.
Assay [11] concerns the target T2, Protein Tat (Human immunodeficiency virus type 1 group M subtype B (isolate HXB2)(HIV-1), UniProt P04608).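 Further: tat binding to TAR RNA read out by fluorescence polarization.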
T2 sequence (P04608 whole entry): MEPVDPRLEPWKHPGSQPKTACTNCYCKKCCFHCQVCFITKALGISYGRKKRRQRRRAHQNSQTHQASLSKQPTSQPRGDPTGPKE
It counts as functional.

Assay [12] deals with Glutathione-S-transferase (Schistosoma japonicum, UniProt Q26513). The assay is described as follows: biotin-GST/anti-GST TR-FRET signal inhibitors, dose response, artefact control for Vif-APOBEC3G degradation inhibitor project, biochemical (AID 1117362). It counts as functional. In general terms: Time-resolved FRET reads energy transfer from a long-lived donor to a nearby acceptor.
Glutathione-S-transferase, sequence (Q26513 whole entry): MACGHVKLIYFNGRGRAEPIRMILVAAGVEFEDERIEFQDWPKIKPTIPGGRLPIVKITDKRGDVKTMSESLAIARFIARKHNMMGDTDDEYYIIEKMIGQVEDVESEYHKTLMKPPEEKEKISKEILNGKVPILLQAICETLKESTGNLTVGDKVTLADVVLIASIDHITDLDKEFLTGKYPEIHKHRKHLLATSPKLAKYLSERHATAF

The target in assay [13] is Large T antigen (Simian virus 40, UniProt P03070). It counts as functional, Betapolyomavirus macacae.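 Further: Confirmatory-stage PubChem screen for compounds that inhibit SV40 T antigen.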
Large T antigen, sequence (P03070 whole entry): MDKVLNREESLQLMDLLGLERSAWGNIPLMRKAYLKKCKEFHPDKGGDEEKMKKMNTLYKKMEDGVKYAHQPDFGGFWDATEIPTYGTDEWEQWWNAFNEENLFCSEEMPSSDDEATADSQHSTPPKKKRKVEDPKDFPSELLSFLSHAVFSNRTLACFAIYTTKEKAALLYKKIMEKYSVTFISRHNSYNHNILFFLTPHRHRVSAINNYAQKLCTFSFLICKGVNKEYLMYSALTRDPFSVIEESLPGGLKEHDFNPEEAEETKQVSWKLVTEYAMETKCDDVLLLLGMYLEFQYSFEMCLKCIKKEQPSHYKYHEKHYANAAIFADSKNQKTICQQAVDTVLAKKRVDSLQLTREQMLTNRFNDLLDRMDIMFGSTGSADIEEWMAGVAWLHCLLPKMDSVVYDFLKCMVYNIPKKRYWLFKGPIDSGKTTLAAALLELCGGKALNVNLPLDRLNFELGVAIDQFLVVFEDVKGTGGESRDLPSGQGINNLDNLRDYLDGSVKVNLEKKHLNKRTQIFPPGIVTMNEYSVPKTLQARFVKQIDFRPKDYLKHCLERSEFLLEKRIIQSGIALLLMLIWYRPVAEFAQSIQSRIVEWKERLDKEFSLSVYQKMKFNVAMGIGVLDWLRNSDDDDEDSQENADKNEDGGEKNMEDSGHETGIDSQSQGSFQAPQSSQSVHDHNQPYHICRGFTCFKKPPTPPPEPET

The source made the active and inactive calls. A value given as a limit tells only on which side of the number the result lay.

Ephrin type-A receptor 4, sequence (Q03137 whole entry): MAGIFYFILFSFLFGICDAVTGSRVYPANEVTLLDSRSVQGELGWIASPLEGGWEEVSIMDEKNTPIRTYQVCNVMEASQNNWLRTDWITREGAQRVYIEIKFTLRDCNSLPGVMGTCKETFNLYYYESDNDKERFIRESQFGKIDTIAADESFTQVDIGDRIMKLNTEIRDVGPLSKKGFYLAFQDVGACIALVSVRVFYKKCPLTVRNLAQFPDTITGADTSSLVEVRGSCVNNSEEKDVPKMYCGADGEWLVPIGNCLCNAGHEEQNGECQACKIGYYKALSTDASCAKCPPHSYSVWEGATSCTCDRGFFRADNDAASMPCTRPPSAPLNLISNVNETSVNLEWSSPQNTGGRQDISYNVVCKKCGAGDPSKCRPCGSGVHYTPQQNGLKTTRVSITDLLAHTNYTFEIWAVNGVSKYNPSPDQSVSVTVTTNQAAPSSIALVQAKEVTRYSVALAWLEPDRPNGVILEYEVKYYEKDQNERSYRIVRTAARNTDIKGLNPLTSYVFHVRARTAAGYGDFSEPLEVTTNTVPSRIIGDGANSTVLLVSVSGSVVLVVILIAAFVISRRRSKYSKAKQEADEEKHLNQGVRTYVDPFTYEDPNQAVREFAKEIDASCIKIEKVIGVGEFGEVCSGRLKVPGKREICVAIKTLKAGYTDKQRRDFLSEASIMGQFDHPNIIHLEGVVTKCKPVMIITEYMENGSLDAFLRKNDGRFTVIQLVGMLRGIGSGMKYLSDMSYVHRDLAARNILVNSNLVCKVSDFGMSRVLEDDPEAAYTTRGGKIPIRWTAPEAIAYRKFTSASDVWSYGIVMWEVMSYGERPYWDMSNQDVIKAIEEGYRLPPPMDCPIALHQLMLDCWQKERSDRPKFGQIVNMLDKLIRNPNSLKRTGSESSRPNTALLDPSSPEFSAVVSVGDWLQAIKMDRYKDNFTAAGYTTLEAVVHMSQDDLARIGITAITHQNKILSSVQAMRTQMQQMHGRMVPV
Ion channel NompC, sequence (Q7T1G6 whole entry): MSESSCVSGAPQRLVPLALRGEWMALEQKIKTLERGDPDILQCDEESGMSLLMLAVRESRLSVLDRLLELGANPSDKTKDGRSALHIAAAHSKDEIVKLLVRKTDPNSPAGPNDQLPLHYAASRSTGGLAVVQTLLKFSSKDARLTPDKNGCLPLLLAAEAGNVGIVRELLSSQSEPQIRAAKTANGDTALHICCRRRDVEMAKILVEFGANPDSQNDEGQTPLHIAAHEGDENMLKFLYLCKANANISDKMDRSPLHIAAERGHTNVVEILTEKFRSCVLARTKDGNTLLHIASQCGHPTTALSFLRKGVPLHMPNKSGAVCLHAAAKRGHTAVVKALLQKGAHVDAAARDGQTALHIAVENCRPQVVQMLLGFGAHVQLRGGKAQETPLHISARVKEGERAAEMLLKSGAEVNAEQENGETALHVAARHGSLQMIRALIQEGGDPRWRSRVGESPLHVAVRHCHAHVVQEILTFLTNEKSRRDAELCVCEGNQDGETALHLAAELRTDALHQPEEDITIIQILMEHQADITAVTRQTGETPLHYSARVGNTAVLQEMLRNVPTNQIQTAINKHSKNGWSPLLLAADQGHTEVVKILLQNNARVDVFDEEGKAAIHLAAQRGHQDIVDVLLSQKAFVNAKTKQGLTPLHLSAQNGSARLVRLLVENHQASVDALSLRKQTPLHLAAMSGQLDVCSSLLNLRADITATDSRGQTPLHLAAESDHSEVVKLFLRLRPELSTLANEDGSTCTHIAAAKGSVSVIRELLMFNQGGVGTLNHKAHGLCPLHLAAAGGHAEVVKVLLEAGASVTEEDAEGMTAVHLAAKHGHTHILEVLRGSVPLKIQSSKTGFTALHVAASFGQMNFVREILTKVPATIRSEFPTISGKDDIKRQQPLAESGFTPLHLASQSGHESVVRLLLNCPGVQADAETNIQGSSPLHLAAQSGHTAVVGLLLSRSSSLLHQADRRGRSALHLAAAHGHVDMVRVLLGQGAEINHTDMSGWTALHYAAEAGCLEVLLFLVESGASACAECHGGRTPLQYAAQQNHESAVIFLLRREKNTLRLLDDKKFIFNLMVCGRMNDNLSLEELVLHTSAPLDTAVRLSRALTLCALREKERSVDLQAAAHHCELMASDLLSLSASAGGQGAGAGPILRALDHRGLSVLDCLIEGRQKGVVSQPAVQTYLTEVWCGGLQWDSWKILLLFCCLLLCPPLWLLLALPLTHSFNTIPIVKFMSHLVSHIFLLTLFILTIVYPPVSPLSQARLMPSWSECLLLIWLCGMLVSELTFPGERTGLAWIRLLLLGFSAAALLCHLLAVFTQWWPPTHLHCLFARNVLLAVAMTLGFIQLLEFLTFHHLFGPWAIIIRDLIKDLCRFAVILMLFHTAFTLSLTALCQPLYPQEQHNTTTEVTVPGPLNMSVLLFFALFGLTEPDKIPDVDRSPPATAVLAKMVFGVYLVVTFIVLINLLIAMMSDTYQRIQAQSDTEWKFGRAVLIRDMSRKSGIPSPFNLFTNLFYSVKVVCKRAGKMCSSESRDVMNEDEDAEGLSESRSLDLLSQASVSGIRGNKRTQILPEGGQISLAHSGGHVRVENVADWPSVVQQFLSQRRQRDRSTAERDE

By IC50 is commonly meant the concentration that inhibits the measured activity by half. As for `CCCCOP(=O)(OCCCC)/C(C#N)=C(/C)O`, the IC50 in [1] is > 100 µM (not active).
In general, EC50 refers to the concentration that produces a half-maximal response. Regarding `O=C(Nc1ccc2c(c1)OCO2)NC1CCN(Cc2ccccc2)CC1`, the results for the concentration for a half-maximal effect (EC50) in assay [2] and in assay [3] were > 60 µM (not active) and 1 µM (active), respectively. In addition, the IC50 in assay [4] is > 100 µM (not active).
As to `CCCSC1=C(C#N)C(c2ccc(Cl)cc2Cl)CC(=O)N1` (stereo not drawn), the IC50 in assay [5] was > 25 µM (active).
On to `CC(=O)NC1C(=O)N=C(SCC(=O)NC(C)c2ccccc2)NC1=O` (stereo not drawn), for which the concentration for a half-maximal effect (EC50) in assay [6] is recorded as 1.67 µM (not active).
For `CCN(C(=O)c1cnc(OC)cc1C(F)(F)F)c1ccc(Cl)cc1Cl`, the results for the EC50 in assay [7] and in assay [8] were 8.86 µM (active) and 4.59 µM (active), respectively. The IC50 in [9] was > 83.3 µM (inactive); in assay [10] it was > 109 µM (inactive).
For `CC(=O)N1CCN(c2ccc(NCc3ccc(C)s3)cc2)CC1`, the IC50 in [11] was > 100 µM (active); in [12], 29.7 µM (active); in assay [13] it was 3.48 µM (active).

Values taken from ChEMBL document CHEMBL1201862, “PubChem BioAssay data set” (2004).
